Results from PubChem BioAssay (NCI).
Values joined by “and” are separate entries in the source; they are usually repeats but may differ in a detail not shown here. Equal values may be shown once.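 Exposure lasted 48 hours, with cells grown in 96-well plates and compounds tested at five concentrations. At the GI50, growth is halved. TGI is the concentration that stops growth completely.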

Experiments:
Test in all cases: growth of human tumour cells (NCI), 48 h
HL-60(TB) leukemia = system: HL-60(TB) leukemia
U251 CNS = system: U251 CNS
RXF 393 renal = system: RXF 393 renal
NCI-H23 lung = system: NCI-H23 lung
SNB-19 CNS = system: SNB-19 CNS
A549 NSCLC = system: A549 NSCLC
KM12 colon = system: KM12 colon
SF-268 CNS = system: SF-268 CNS
HCT-116 colon = system: HCT-116 colon
ACHN renal = system: ACHN renal
CCRF-CEM leukemia = system: CCRF-CEM leukemia
MALME-3M melanoma = system: MALME-3M melanoma
SR leukemia = system: SR leukemia
MOLT-4 leukemia = system: MOLT-4 leukemia
HT29 colon = system: HT29 colon
SW-620 colon = system: SW-620 colon
DU-145 prostate = system: DU-145 prostate
HCC-2998 colon = system: HCC-2998 colon
UO-31 renal = system: UO-31 renal
OVCAR-8 ovarian = system: OVCAR-8 ovarian
OVCAR-5 ovarian = system: OVCAR-5 ovarian
786-0 renal = system: 786-0 renal
HOP-62 NSCLC = system: HOP-62 NSCLC
IGROV1 ovarian = system: IGROV1 ovarian
MDA-N = system: MDA-N
MDA-MB-435 = system: MDA-MB-435
SNB-75 CNS = system: SNB-75 CNS
MDA-MB-231 breast = system: MDA-MB-231 breast
SF-295 CNS = system: SF-295 CNS
MCF7 breast = system: MCF7 breast
EKVX NSCLC = system: EKVX NSCLC
CAKI-1 renal = system: CAKI-1 renal
T-47D breast = system: T-47D breast
OVCAR-3 ovarian = system: OVCAR-3 ovarian
PC-3 prostate = system: PC-3 prostate
SK-MEL-28 melanoma = system: SK-MEL-28 melanoma
COLO 205 colon = system: COLO 205 colon
HCT-15 colon = system: HCT-15 colon
LOX IMVI melanoma = system: LOX IMVI melanoma
NCI/ADR-RES ovarian = system: NCI/ADR-RES ovarian
NCI-H460 lung = system: NCI-H460 lung
SN12C renal = system: SN12C renal

O=C1NC(c2cccc3ccccc23)Nc2ccc(Cl)cc21 (configuration not stated)
TGI (HL-60(TB) leukemia): 0.441 nM | TGI (U251 CNS): 22 nM and 26.6 nM | TGI (RXF 393 renal): 26.1 nM | GI50 (NCI-H23 lung): 11 nM | TGI (NCI-H23 lung): 14900 nM | TGI (SNB-19 CNS): > 100000 nM | TGI (A549 NSCLC): > 100000 nM | TGI (KM12 colon): 803 nM | TGI (SF-268 CNS): 23300 nM | TGI (HCT-116 colon): 12100 nM | TGI (ACHN renal): 10700 nM | TGI (CCRF-CEM leukemia): 51.2 nM | TGI (MALME-3M melanoma): 37700 nM | TGI (SR leukemia): 0.654 nM | TGI (MOLT-4 leukemia): 9.87 nM | TGI (HT29 colon): 105 nM | TGI (SW-620 colon): 17200 nM | TGI (DU-145 prostate): 169 nM and 1430 nM | TGI (HCC-2998 colon): 285 nM and 60.7 nM | TGI (UO-31 renal): 8.36 nM | TGI (OVCAR-8 ovarian): 11400 nM | GI50 (OVCAR-5 ovarian): 29.1 nM | TGI (OVCAR-5 ovarian): 85 nM | TGI (786-0 renal): 23100 nM | TGI (HOP-62 NSCLC): 11900 nM | TGI (IGROV1 ovarian): 32900 nM | TGI (MDA-N): 0.218 nM | TGI (MDA-MB-435): 0.257 nM | TGI (SNB-75 CNS): 0.902 nM | TGI (MDA-MB-231 breast): 30300 nM | TGI (SF-295 CNS): 23.2 nM | GI50 (MCF7 breast): 12.9 nM | TGI (MCF7 breast): > 100000 nM | GI50 (EKVX NSCLC): 12.9 nM | TGI (EKVX NSCLC): 83300 nM | GI50 (CAKI-1 renal): 10.9 nM | TGI (CAKI-1 renal): 11200 nM | TGI (T-47D breast): 68500 nM | TGI (OVCAR-3 ovarian): 15.1 nM and 30.3 nM | TGI (PC-3 prostate): 14.8 nM and 14.3 nM | TGI (SK-MEL-28 melanoma): 20600 nM | TGI (COLO 205 colon): 17.5 nM and 79.5 nM | TGI (HCT-15 colon): 269 nM | TGI (LOX IMVI melanoma): 14600 nM | TGI (NCI/ADR-RES ovarian): 11.5 nM | TGI (NCI-H460 lung): 279 nM | TGI (SN12C renal): 17900 nM
